Measured values reported in patent publication US6737383B1, “Herbicidal oxadiazolidines” (priority 1999, dated 2004).

Assays:
bedstraw = assay: Test B pre/postemergence bedstraw; format: in vivo, Galium aparine
Summary of the method: (§1)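 Test chemicals in a non-phytotoxic solvent mixture with surfactant were sprayed preemergence onto planted seeds and postemergence onto plants 2 to 18 cm tall (1- to 4-leaf stage). After twelve to sixteen days in a greenhouse, injury was visually rated against untreated controls from 0 (no effect) to 10 (complete control).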

blackgrass = assay: Test B pre/postemergence blackgrass; format: in vivo, Alopecurus myosuroides
Summary of the method: as §1

surinam grass = assay: Test B pre/postemergence surinam grass; format: in vivo, Brachiaria decumbens
Summary of the method: as §1

cocklebur = assay: Test B pre/postemergence cocklebur; format: in vivo, Xanthium strumarium
Summary of the method: as §1

corn = assay: Test B pre/postemergence corn; format: in vivo, Zea mays
Summary of the method: as §1

crabgrass = assay: Test B pre/postemergence crabgrass; format: in vivo, Digitaria sanguinalis
Summary of the method: as §1

giant foxtail = assay: Test B pre/postemergence giant foxtail; format: in vivo, Setaria faberii
Summary of the method: as §1

pigweed = assay: Test B pre/postemergence pigweed; format: in vivo, Amaranthus retroflexus
Summary of the method: as §1

soybean = assay: Test B pre/postemergence soybean; format: in vivo, Glycine max
Summary of the method: as §1

sugar beet = assay: Test B pre/postemergence sugar beet; format: in vivo, Beta vulgaris
Summary of the method: as §1

velvetleaf = assay: Test B pre/postemergence velvetleaf; format: in vivo, Abutilon theophrasti
Summary of the method: as §1

wheat = assay: Test B pre/postemergence wheat; format: in vivo, Triticum aestivum
Summary of the method: as §1

wild oat = assay: Test B pre/postemergence wild oat; format: in vivo, Avena fatua
Summary of the method: as §1

purple nutsedge = assay: Test B pre/postemergence purple nutsedge; format: in vivo, Cyperus rotundus
Summary of the method: as §1

rice = assay: Test B flood test rice; format: in vivo, Oryza sativa
Summary of the method: (§2)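 Plants were grown to the 2-leaf stage before treatment with test chemical, then held in a greenhouse for twelve to sixteen days. Injury was visually rated against untreated controls on a 0–10 scale, where 0 is no effect and 10 is complete control.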

duck salad = assay: Test B flood test duck salad; format: in vivo, Heteranthera limosa
Summary of the method: as §2

[1] = Postemergence, Rate 62 g/ha, scale 0 to 10, 0 is no effect, 10 is complete control
[2] = Postemergence, Rate 125 g/ha, scale of 0 to 10 where 0 is no effect and 10 is complete control
[3] = Postemergence, Rate 250 g/ha, scale of 0 to 10, 0 is no effect, 10 is complete control
[4] = Preemergence, Rate 62 g/ha, scale 0 to 10 (0 no effect, 10 complete control)
[5] = Preemergence, Rate 125 g/ha, scale of 0 to 10 where 0 is no effect and 10 is complete control
[6] = Preemergence, Rate 250 g/ha, scale 0 to 10 (0 no effect, 10 complete control)
[7] = Preemergence, Rate 500 g/ha, scale of 0 to 10 where 0 is no effect and 10 is complete control
[8] = Postemergence, Rate 500 g/ha, scale of 0 to 10 where 0 is no effect and 10 is complete control
[9] = Rate 62 g/ha, flood test species, Pre-emergence, visual evaluation after twelve to sixteen days
[10] = Rate 125 g/ha, under heading Pre-emergence, flood test species, visual evaluation after twelve to sixteen days
[11] = Rate 250 g/ha, Pre-emergence (flood test species), scale 0 to 10, 0 is no effect, 10 is complete control
[12] = Rate 500 g/ha, Pre-emergence section of Table B, 0 to 10 scale (0 no effect, 10 complete control)

Question: With CCOC(Cn1c(=O)on(C(=O)N(c2ccc(F)cc2)C(C)C)c1=O)OCC [Compound 629] as the molecule, how does the “Plant response rating, Bedstraw” value (bedstraw; [1]) read?
Answer: 3

Question: And the “Plant response rating, Bedstraw” value (bedstraw; [2])?
Answer: 5

Question: What about the “Bedstraw plant response rating” value (bedstraw; [3]) of the same molecule?
Answer: 8

Question: What about the “Bedstraw plant response rating” value (bedstraw; [4]) of the same molecule?
Answer: 0

Question: What about the “Bedstraw plant response rating” value (bedstraw; [5]) of the same molecule?
Answer: 0

Question: What about the “Plant response rating, Bedstraw” value (bedstraw; [6]) of the same molecule?
Answer: 3

Question: What about the “Plant response rating, Bedstraw” value (bedstraw; [7]) of the same molecule?
Answer: 8

Question: What about the “Plant response rating, Blackgrass” value (blackgrass; [1]) of the same molecule?
Answer: 3

Question: And the “Plant response rating, Blackgrass” value (blackgrass; [2])?
Answer: 8

Question: What about the “Blackgrass plant response rating” value (blackgrass; [3]) of the same molecule?
Answer: 8

Question: And the “Plant response rating, Blackgrass” value (blackgrass; [8])?
Answer: 8

Question: What about the “Blackgrass plant response rating” value (blackgrass; [4]) of the same molecule?
Answer: 4

Question: What about the “Blackgrass plant response rating” value (blackgrass; [5]) of the same molecule?
Answer: 8

Question: And the “Plant response rating, Blackgrass” value (blackgrass; [6])?
Answer: 8

Question: And the “Plant response rating, Blackgrass” value (blackgrass; [7])?
Answer: 10

Question: What about the “Plant response rating, B. signalgrass” value (surinam grass; [1]) of the same molecule?
Answer: 0

Question: And the “Plant response rating, B. signalgrass” value (surinam grass; [2])?
Answer: 1

Question: What about the “B. signalgrass plant response rating” value (surinam grass; [3]) of the same molecule?
Answer: 3

Question: What about the “Plant response rating, B. signalgrass” value (surinam grass; [8]) of the same molecule?
Answer: 7

Question: And the “B. signalgrass plant response rating” value (surinam grass; [4])?
Answer: 0

Question: And the “B. signalgrass plant response rating” value (surinam grass; [5])?
Answer: 2

Question: And the “Plant response rating, B. signalgrass” value (surinam grass; [6])?
Answer: 5

Question: And the “Plant response rating, B. signalgrass” value (surinam grass; [7])?
Answer: 8

Question: And the “Plant response rating, Cocklebur” value (cocklebur; [1])?
Answer: 0

Question: What about the “Plant response rating, Cocklebur” value (cocklebur; [2]) of the same molecule?
Answer: 0

Question: And the “Cocklebur plant response rating” value (cocklebur; [3])?
Answer: 0

Question: What about the “Plant response rating, Cocklebur” value (cocklebur; [8]) of the same molecule?
Answer: 2

Question: What about the “Cocklebur plant response rating” value (cocklebur; [4]) of the same molecule?
Answer: 0

Question: What about the “Cocklebur plant response rating” value (cocklebur; [5]) of the same molecule?
Answer: 0

Question: What about the “Plant response rating, Cocklebur” value (cocklebur; [6]) of the same molecule?
Answer: 3

Question: What about the “Plant response rating, Cocklebur” value (cocklebur; [7]) of the same molecule?
Answer: 7

Question: And the “Plant response rating, Corn” value (corn; [1])?
Answer: 3

Question: And the “Plant response rating, Corn” value (corn; [2])?
Answer: 3

Question: And the “Corn plant response rating” value (corn; [3])?
Answer: 4

Question: What about the “Plant response rating, Corn” value (corn; [8]) of the same molecule?
Answer: 6

Question: And the “Corn plant response rating” value (corn; [4])?
Answer: 1

Question: And the “Corn plant response rating” value (corn; [5])?
Answer: 2

Question: And the “Plant response rating, Corn” value (corn; [6])?
Answer: 6

Question: What about the “Plant response rating, Corn” value (corn; [7]) of the same molecule?
Answer: 8

Question: And the “Plant response rating, Crabgrass” value (crabgrass; [1])?
Answer: 1

Question: What about the “Plant response rating, Crabgrass” value (crabgrass; [2]) of the same molecule?
Answer: 3

Question: What about the “Crabgrass plant response rating” value (crabgrass; [3]) of the same molecule?
Answer: 8

Question: And the “Plant response rating, Crabgrass” value (crabgrass; [8])?
Answer: 9

Question: What about the “Crabgrass plant response rating” value (crabgrass; [4]) of the same molecule?
Answer: 7

Question: What about the “Crabgrass plant response rating” value (crabgrass; [5]) of the same molecule?
Answer: 9

Question: What about the “Plant response rating, Crabgrass” value (crabgrass; [6]) of the same molecule?
Answer: 9

Question: What about the “Plant response rating, Crabgrass” value (crabgrass; [7]) of the same molecule?
Answer: 10

Question: What about the “Plant response rating, Giant foxtail” value (giant foxtail; [1]) of the same molecule?
Answer: 3

Question: What about the “Plant response rating, Giant foxtail” value (giant foxtail; [2]) of the same molecule?
Answer: 8

Question: And the “Giant foxtail plant response rating” value (giant foxtail; [3])?
Answer: 9

Question: And the “Plant response rating, Giant foxtail” value (giant foxtail; [8])?
Answer: 9

Question: And the “Giant foxtail plant response rating” value (giant foxtail; [4])?
Answer: 8

Question: What about the “Giant foxtail plant response rating” value (giant foxtail; [5]) of the same molecule?
Answer: 10

Question: What about the “Plant response rating, Giant foxtail” value (giant foxtail; [6]) of the same molecule?
Answer: 10

Question: What about the “Plant response rating, Giant foxtail” value (giant foxtail; [7]) of the same molecule?
Answer: 10

Question: And the “Plant response rating, Redroot pigweed” value (pigweed; [1])?
Answer: 0

Question: And the “Redroot pigweed plant response rating” value (pigweed; [3])?
Answer: 2

Question: And the “Redroot pigweed plant response rating” value (pigweed; [4])?
Answer: 2

Question: And the “Redroot pigweed plant response rating” value (pigweed; [5])?
Answer: 10

Question: What about the “Plant response rating, Redroot pigweed” value (pigweed; [6]) of the same molecule?
Answer: 10

Question: And the “Plant response rating, Redroot pigweed” value (pigweed; [7])?
Answer: 10

Question: What about the “Plant response rating, Soybean” value (soybean; [1]) of the same molecule?
Answer: 4

Question: What about the “Plant response rating, Soybean” value (soybean; [2]) of the same molecule?
Answer: 6

Question: What about the “Soybean plant response rating” value (soybean; [3]) of the same molecule?
Answer: 7

Question: What about the “Soybean plant response rating” value (soybean; [4]) of the same molecule?
Answer: 0

Question: What about the “Soybean plant response rating” value (soybean; [5]) of the same molecule?
Answer: 0

Question: And the “Plant response rating, Soybean” value (soybean; [6])?
Answer: 0

Question: And the “Plant response rating, Soybean” value (soybean; [7])?
Answer: 0

Question: What about the “Plant response rating, Sugarbeets” value (sugar beet; [1]) of the same molecule?
Answer: 0

Question: What about the “Plant response rating, Sugarbeets” value (sugar beet; [2]) of the same molecule?
Answer: 0

Question: And the “Sugarbeets plant response rating” value (sugar beet; [3])?
Answer: 0

Question: And the “Sugarbeets plant response rating” value (sugar beet; [4])?
Answer: 2

Question: What about the “Plant response rating, Sugarbeets” value (sugar beet; [6]) of the same molecule?
Answer: 3

Question: What about the “Plant response rating, Sugarbeets” value (sugar beet; [7]) of the same molecule?
Answer: 7

Question: And the “Plant response rating, Velvetleaf” value (velvetleaf; [1])?
Answer: 0

Question: And the “Plant response rating, Velvetleaf” value (velvetleaf; [2])?
Answer: 5

Question: What about the “Velvetleaf plant response rating” value (velvetleaf; [3]) of the same molecule?
Answer: 5

Question: What about the “Velvetleaf plant response rating” value (velvetleaf; [4]) of the same molecule?
Answer: 3

Question: And the “Velvetleaf plant response rating” value (velvetleaf; [5])?
Answer: 6

Question: What about the “Plant response rating, Velvetleaf” value (velvetleaf; [6]) of the same molecule?
Answer: 6

Question: And the “Plant response rating, Velvetleaf” value (velvetleaf; [7])?
Answer: 8

Question: What about the “Plant response rating, Wheat” value (wheat; [1]) of the same molecule?
Answer: 0

Question: What about the “Plant response rating, Wheat” value (wheat; [2]) of the same molecule?
Answer: 0

Question: What about the “Wheat plant response rating” value (wheat; [3]) of the same molecule?
Answer: 0

Question: And the “Wheat plant response rating” value (wheat; [4])?
Answer: 0

Question: What about the “Wheat plant response rating” value (wheat; [5]) of the same molecule?
Answer: 0

Question: And the “Plant response rating, Wheat” value (wheat; [6])?
Answer: 3

Question: And the “Plant response rating, Wheat” value (wheat; [7])?
Answer: 3

Question: And the “Plant response rating, Wild oats” value (wild oat; [1])?
Answer: 0

Question: What about the “Plant response rating, Wild oats” value (wild oat; [2]) of the same molecule?
Answer: 0

Question: And the “Wild oats plant response rating” value (wild oat; [4])?
Answer: 0

Question: And the “Wild oats plant response rating” value (wild oat; [5])?
Answer: 0

Question: And the “Plant response rating, Wild oats” value (wild oat; [6])?
Answer: 9

Question: And the “Plant response rating, Wild oats” value (wild oat; [7])?
Answer: 9

Question: What about the “Plant response rating, Nutsedge” value (purple nutsedge; [1]) of the same molecule?
Answer: 0

Question: And the “Plant response rating, Nutsedge” value (purple nutsedge; [2])?
Answer: 0

Question: What about the “Nutsedge plant response rating” value (purple nutsedge; [3]) of the same molecule?
Answer: 0

Question: And the “Plant response rating, Nutsedge” value (purple nutsedge; [8])?
Answer: 0

Question: What about the “Nutsedge plant response rating” value (purple nutsedge; [4]) of the same molecule?
Answer: 0

Question: What about the “Nutsedge plant response rating” value (purple nutsedge; [5]) of the same molecule?
Answer: 2

Question: What about the “Plant response rating, Nutsedge” value (purple nutsedge; [6]) of the same molecule?
Answer: 5

Question: What about the “Plant response rating, Nutsedge” value (purple nutsedge; [7]) of the same molecule?
Answer: 5

Question: And the “Plant response rating, Rice (0 to 10 scale, 0 is no effect, 10 is complete control)” value (rice; [9])?
Answer: 0

Question: What about the “Rice plant response rating (0 to 10 scale, 0 is no effect, 10 is complete control)” value (rice; [10]) of the same molecule?
Answer: 0

Question: What about the “Rice plant response rating” value (rice; [11]) of the same molecule?
Answer: 0

Question: And the “Rice plant response rating” value (rice; [12])?
Answer: 0

Question: And the “Plant response rating, Ducksalad (0 to 10 scale, 0 is no effect, 10 is complete control)” value (duck salad; [9])?
Answer: 0

Question: What about the “Ducksalad plant response rating (0 to 10 scale, 0 is no effect, 10 is complete control)” value (duck salad; [10]) of the same molecule?
Answer: 0

Question: And the “Ducksalad plant response rating” value (duck salad; [11])?
Answer: 0

Question: And the “Ducksalad plant response rating” value (duck salad; [12])?
Answer: 0
